Earlier results on one compound are cited in US10927113B2, “Process for preparing purine derivatives” (Cyclacel Limited, priority 2017, dated 2021).

The test system of one data set is CDK. The settings on record: background statement referring to WO 2008/122767.
The test system of data set [1] is a range of different cell lines. The conditions noted are these: background statement.

Turning to `CC[C@H](Nc1nc(NCc2cnc(C)cc2C)c2ncn(C(C)C)c2n1)[C@@H](C)O` [Compound [1]], the CDK inhibitory activity result in the data set on CDK is “potent CDK inhibitory activity”. Further, the “potency in cellular toxicity studies” value in data set [1] is listed as “surprisingly high potency”.
